Columns and labels:
[1] = test system: patients with type 2 diabetes mellitus having albumin urine; test: Phase II randomized, placebo controlled, double-blind clinical study of compound (Ia) (Example 3); type: in vivo, human; settings: for Reduction rate of UACR (geometric mean) from baseline at the end of dosing / Remission rate of UACR: 12 weeks; for Remission rate of UACR: UACR <30 mg/g Cr at 11 and 12 weeks and decreased by 30% or more
Method: A clinical study targeted to patients with type 2 diabetes mellitus having albumin urine was conducted to evaluate the efficacy and safety of the like of compound
(Ia). This study is a Phase II randomized, placebo controlled, double-blind comparison study. Each of the patients was subjected to a washout period of 4 to 12 weeks followed by treatment comprising administrating placebo or compound (Ia) (0.625 mg, 1.25 mg, 2.5 mg, 5 mg) once a day over a treatment period of 12 weeks.
365 Patients in Japan who met the following criteria entered this study, and an efficacy and safety analysis set included 358 cases.
1. The patient is with type 2 diabetes mellitus; 2. The patient is 20 years old or more at the time of consent; 3. Urine albumin/creatinine ratio (UACR) is 45 mg/g Cr or more and less than 300 mg/g Cr; 4. Estimated glomerular filtration rate calculated with serum creatinine (eGFRcreat) is 30 mL/min/1.73 m^2 or more; and 5. The patient has been subjected to treatment with an angiotensin-converting enzyme inhibitor or an angiotensin II receptor antagonist (and optionally a calcium antagonist) since at least 3 months before the start of treatment.
The patient was followed up for approximately 6 weeks after the end of dosing, and evaluated for change in UACR from baseline, remission rate of UACR and numerical value of eGFR as well as safety.
Remission rate of UACR (%)=(number of subjects in remission÷number of all subjects to be analyzed)×100

[2] = test system: DOCA/sodium chloride-loaded hypertension model; test: Ameliorative effect on a renal disorder in the DOCA/sodium chloride-loaded hypertension model (kidney histopathology); type: in vivo, male WKY rats; settings: for Glomerulosclerosis score / Tubular disorder score, Cortical side / Tubular disorder score, Medullary side: 15 weeks old, score 0 to 4, mean±standard error, n=6
Method: Deoxycorticosterone acetate (DOCA)/sodium chloride-loaded hypertension model was prepared by the following procedure. 6 Week-old male WKY rats (WKY/Izm, SPF grade, produced by Funabashi Farm Co., Ltd.) were subjected to unilateral nephrectomy, diet containing 4% sodium chloride (4% NaCl-containing FR-2, manufactured by Funabashi Farm Co., Ltd.) was given from 7 weeks old by free feeding, and DOCA was administered subcutaneously once a week. DOCA was suspended in a 0.5% carboxymethylcellulose solution (20 mg/mL) and administered in an amount corresponding to 1 mL/kg. The group to which DOCA was not administered was designated as DOCA non-administration group and the group to which DOCA was administered was designated as DOCA administration group.
At 11 weeks old, some of the animals in the DOCA non-administration group were dissected and the other animals in the DOCA non-administration group were designated as normal group (Group 1). At the same time, some of the animals in the DOCA administration group were also dissected, and the others of the DOCA administration group were divided into the following groups (Groups 2 to 4).
Group 1: normal group, n=6 animals
Group 2; control group, n=6 animals
Group 3; compound (Ia) administration group [compound (Ia) 3 mg/kg], n=6 animals
Group 4: DOCA administration interruption+compound (Ia) administration group [compound (Ia) 3 mg/kg], n=6 animals
The dosing schedule of test drugs for each group after 11 weeks is as follows.
To Group 1, oral administration of a 0.5% methylcellulose solution was continued for 4 weeks. To Group 2, oral administration of 0.5% methylcellulose solution and subcutaneous administration (once a week) of DOCA were continued for 4 weeks. To Group 3, oral administration of compound (Ia) suspended in 0.5% methylcellulose solution (2 mL/kg) and subcutaneous administration (once a week) of DOCA were continued for 4 weeks.
To Group 4, only oral administration of compound (Ia) suspended in 0.5% methylcellulose solution (2 mL/kg) was continued for 4 weeks.
At the end of 4 weeks of administration of the test drug or the like (at the age of 15 weeks old), all animals were dissected.
At 7, 11, 13 and 15 weeks old, 24-hour urine collections were conducted using metabolic cages (2100-R, Watanabe Isolator Systems Co., Ltd.). Daily urinary protein excretion was calculated from the urine protein concentration (measured by BiOLiS 24i premium [Tokyo Boeki Medisys Inc.]) and urine volume.
At the time of dissection at 11 and 15 weeks old, the kidneys were isolated and weighed, and the kidney weight per body weight was calculated.
Furthermore, histopathological sections were prepared from a part of the isolated kidneys, and histopathological evaluation (scoring of glomerulosclerosis and tubular disorder) was conducted. For glomerulosclerosis, 30 glomeruli were selected at random for each sample, and the degree of glomerulosclerosis of each sample was quantified on the basis of 5 stages (0 to 4) to determine an average value of 30 values, which was used as a score of the sample (Uehara Y, et al., Hypertens. Res. 1992; 15, pp 17-26). For tubular disorder, for each of the cortical and medullary sides, 10 fields of view were selected for each sample, the degree of tubular disorder was quantified on the basis of 5 stages (0 to 4) to determine the average value of values for each 10 fields of view, which was used as a score of the sample (Uehara Y, et al., Hypertens. Res. 1992; 15, pp 17-26). Results are shown in Table 3 (each numerical value in the table represents the mean±standard error).

[3] = Group 3: 3 mg/kg oral for 4 weeks with continued DOCA
[4] = Group 4: DOCA administration interruption + 3 mg/kg oral for 4 weeks

In the case of `Cc1c(C(=O)Nc2ccc(S(C)(=O)=O)cc2)cn(CCO)c1-c1ccccc1C(F)(F)F` (atropisomer, axis not shown) [compound (Ia), (S)-1-(2-hydroxyethyl)-4-methyl-N-[4-(methylsulfonyl)phenyl]-5-[2-(trifluoromethyl)phenyl]-1H-pyrrole-3-carboxamide], the “Reduction rate of UACR (geometric mean) from baseline at the end of dosing” value (“Reduction rate of UACR (geometric mean)” below) ([1]; 0.625 mg once a day) is reported as 21%, the “Remission rate of UACR” value ([1]; 0.625 mg once a day) is reported as 7.5% and the “Reduction rate of UACR (geometric mean)” value ([1]; 1.25 mg once a day) is reported as 37%. For the same compound, the “Remission rate of UACR” value ([1]; 1.25 mg once a day) was 12.3%, the “Reduction rate of UACR (geometric mean)” value ([1]; 2.5 mg once a day) was 50% and the “Remission rate of UACR” value ([1]; 2.5 mg once a day) was 21.2%. The “Reduction rate of UACR (geometric mean)” value ([1]; 5 mg once a day) was 56%, the “Remission rate of UACR” value ([1]; 5 mg once a day) was 21.1% and the “Therapeutic effect (UACR reducing effect and increase in remission rate)” value ([1]; patients without sufficient effect on ACE inhibitor or angiotensin II receptor antagonist (optionally calcium antagonist)) was “excellent therapeutic effect”. The “Effect on renal disorders (proteinuria, renal hypertrophy, glomerulosclerosis and tubular disorder)” value ([2]; 3 mg/kg oral for 4 weeks, disease model animals) was “excellent ameliorative effect”, the Glomerulosclerosis score [2, 3] was 0.29 ± 0.05 and the “Tubular disorder score, Cortical side” value [2, 3] was 1.02 ± 0.07. For the same compound, the “Tubular disorder score, Medullary side” value [2, 3] was 1.73 ± 0.04, the “Effect on renal disorders versus normal group” value [2, 4] was “ameliorated almost to the normal group level” and the Glomerulosclerosis score [2, 4] was 0.20 ± 0.04. For the same compound, the “Tubular disorder score, Cortical side” value [2, 4] was 0.67 ± 0.06 and the “Tubular disorder score, Medullary side” value [2, 4] was 1.42 ± 0.11.

From US20190175551A1, “MEDICINE FOR TREATING RENAL DISEASE” (Daiichi Sankyo Company, Limited, priority 2016, published 2019)
